Test results from article PMC7177638 (International Journal of Molecular Sciences, 2020).
pIC50: −log10 of the molar value.

How the values were obtained:
[1] = XPS Pt4f surface reduction of Pt(IV) to Pt(II) under X-ray irradiation; format: physicochemical; details: after 30 min irradiation, calculated from Pt(IV) abundances
Text: The Pt(IV) complexes were also characterized by X-ray photoelectron spectroscopy (XPS) in order to obtain information on the surface chemical composition and on the platinum speciation. Despite the surface sensitivity of the technique (topmost 5–8 nm), the analysis on homogeneous samples provides useful information on the chemical environment of all detected elements. […] Two doublets were found: one is attributed to Pt(II) (BE Pt4f7/2 = 72.9 ± 0.2 eV and BE Pt4f5/2 = 76.2 ± 0.2 eV), while the second doublet is attributed to Pt(IV) (BE Pt4f7/2 = 75.6 ± 0.2 eV and BE Pt4f5/2 = 79.0 ± 0.2 eV).
The Pt(IV)/Pt(II) relative abundance varies from case to case; moreover, if the X-ray degradation is monitored after 30 min exposure to the X-ray beam, an increase of the Pt(II) relative abundance is observed (Figure 8b).
X-ray Photoelectron Spectroscopy (XPS) analyses were run on a PHI 5000 Versa Probe II Scanning XPS Microprobe spectrometer (ULVAC PHI Inc., Kanagawa, Japan). Measurements were carried out using a monochromatic Al Kα source (X-ray spot 200 μm) at a power of 50.3 W. Wide scan and detailed spectra (Pt4f, C1s, Cl2p, N1s, O1s) were acquired in Constant Analyzer Energy (CAE) mode with a pass energy of 117.40 and 29.35 eV, respectively. An electron gun was used for charge compensation (1.0 V, 20.0 μA). Due to the X-ray sensitivity of Pt(IV) complexes, the Pt4f spectral region was acquired first. X-ray degradation kinetics experiments were performed analyzing the same sample area after 30 min. Data processing was performed by using the MultiPak software v. 9.8.0.19.

[2] = Stability in solution followed by 1H-NMR (solvent-assisted photoreduction); format: physicochemical; details: DMSO-d6, room temperature, not shielded from light
Text: (5.4–6.5 ppm). Most likely, compound 4 underwent a solvent-assisted reduction process favored by light, as previously observed for similar compounds such as cis,trans,cis-[PtCl2(OH)2(cis-1,4-DACH)] [19, 20]. […] This reduction/solvation could also be observed in other solvents, such as D2O and CD3OD.
As for compound 4, the reduction is probably fostered by the presence of axial chlorido ligand(s).
The ^13C NMR signals are influenced by the asymmetry of the complex with respect to the equatorial plane with two peaks at 125.4 and 125.2 ppm for the vinylic carbons, two signals at 60.2 and 59.3 ppm for the methynic carbons, and two signals at 33.1 and 32.6 ppm for the methylenic carbons (Figure S10).

[3] = test system: panel of human cancer cell lines (PSN-1, HCT-15, LoVo, A431, 2008); assay: MTT cytotoxicity, average over the panel of human cancer cell lines; format: cell-based; details: 72 h
Procedure: The in vitro cytotoxic activities of compounds 1–6 were assayed on a panel of human cancer cell lines containing examples of pancreatic (PSN-1), colon (HCT-15 and LoVo), cervical (A431), and ovarian (2008) cancers. Cisplatin and oxaliplatin were used as reference compounds and were tested under the same experimental conditions.
[17, 30] Thus, the pharmacological activity decreases in the order 3 >> 1 ≈ 2 ≈ 4 > 5 > 6.
The growth inhibitory effect toward the tumor cell lines was evaluated by the MTT test. Briefly, 3-8·10^3 cells/well, depending upon the growth characteristics of the cell lines, were seeded in 96-well microplates in growth medium (100 µL) and then incubated at 37 °C in a 5% carbon dioxide atmosphere. After 24 h, the medium was removed and replaced with a fresh one containing the compound to be tested at the appropriate concentration. Triplicate cultures were established for each treatment. After 72 h, each well was treated with 10 µL of a 5 mg·mL^−1 MTT (3-(4,5-dimethylthiazol-2-yl)-2,5-diphenyltetrazolium bromide) saline solution and, after 5 h of incubation, 100 µL of a sodium dodecylsulfate (SDS) solution in HCl 0.01 M were added. Following an overnight incubation, the inhibition of cell growth induced by the tested complexes was evaluated by measuring the absorbance of each well at 570 nm using a Bio-Rad 680 microplate reader (Bio-Rad Laboratories S.r.l., Segrate (MI), Italy).

Structure (SMILES) | % of Reduction [1] | stability in solution (reduction to Pt(II) / solvation) [2] | times more cytotoxic than the other Pt(IV) compounds of the series [3] | times more cytotoxic than the other Pt(IV) compounds of the series ([3]; listed as bis-benzoate derivative) | pIC50 ([3]; mean over the cell line panel)
CC(=O)[O][Pt]1([Cl])[O]C(=O)C(=O)[O]1.NC1CC=CCC1N (racemic) [Complex 5, cis,trans,cis-[Pt(OXA)(AcO)Cl(DACHEX)]] | 67% | shows a photo-assisted reduction accompanied by solvation | – | – | –
NC1CC=CCC1N.O=C([O-])C(=O)[O-].O=C([O-])c1ccccc1.O=C([O-])c1ccccc1.[Pt+4] (mixture of isomers) [Complex 3, cis,trans,cis-[Pt(OXA)(BzO)2(DACHEX)]] | 66% | – | about five times more active | 5–8 | 6.59
NC1CC=CCC1N.O=C1[O][Pt]([OH])([Cl])[O]C1=O (racemic) [Complex 6, cis,trans,cis-[Pt(OXA)(OH)Cl(DACHEX)]] | 64% | underwent reduction followed by solvation | – | – | –
